In PMC11078990, “Identification and characterization of small molecule inhibitors of the LINE-1 retrotransposon endonuclease” (Nature Communications, 2024):
Where “and” joins values, the source holds several entries; their conditions need not be identical. Equal values may be shown once. Read-outs that look alike come from different tables or passages of the source.

How the values were obtained:
[1] = target: L1 EN (LINE-1 retrotransposon endonuclease domain) (Homo sapiens, UniProt O00370, N5T); assay: Fluorescent oligonucleotide EN nicking activity assay; format: biochemical
APE1 = target: T1, APE1 (Homo sapiens, UniProt P27695); assay: APE1 fluorescent oligonucleotide activity assay (abasic site substrate); format: biochemical; conditions: for Percent APE1 activity, average / Percent APE1 activity, replicates: 250 µM, Supplementary Fig. 6b; for Percent APE1 activity, average: n=3; for Percent APE1 activity, replicates: replicates 1-3; for activity at 25 µM: read-out: APE1 activity (%)
T1 construct: purchased New England Biolabs (NEB) M0282S

[2] = system: substrate oligonucleotide used in the EN activity assay; format: binding; parameters: key to Binding Detected? (Y/N): Binding Detected? (Y/N); Binding Detected? (Y/N)
L1 retrotransposition = assay: HeLa dual-luciferase L1 retrotransposition assay; format: cell-based, human; conditions: for L1 retrotransposition, average: average of 4 replicates; for Effect on L1 retrotransposition: HeLa cells
HeLa Tet-On cells = conditions: human
[3] = [Inhibitor] 25 μM, technical replicates 1-3, Fig. 2b source data, 25 µM
[4] = [Inhibitor] 25 μM, technical replicates 1-3, Fig. 2b source data, read-out: EN activity, percent of no inhibitor control
[5] = [Inhibitor] 50 μM, technical replicates 1-3, Fig. 2b source data, 50 µM
[6] = [Inhibitor] 100 μM, technical replicates 1-3, Fig. 2b source data, 100 µM
[7] = [Inhibitor] 100 μM, technical replicates 1-3, Fig. 2b source data, read-out: EN activity, percent of no inhibitor control
[8] = [Inhibitor] 250 μM, technical replicates 1-3, Fig. 2b source data, 250 µM
[9] = [Inhibitor] 250 μM, technical replicates 1-3, Fig. 2b source data, read-out: EN activity, percent of no inhibitor control
[10] = [Inhibitor] 500 μM, technical replicates 1-3, Fig. 2b source data, 500 µM
[11] = [Inhibitor] 500 μM, technical replicates 1-3, Fig. 2b source data, read-out: EN activity, percent of no inhibitor control
[12] = [Inhibitor] 1000 μM, technical replicates 1-3, Fig. 2b source data, 1000 µM
[13] = [Inhibitor] 1000 μM, technical replicates 1-3, Fig. 2b source data, read-out: EN activity, percent of no inhibitor control
[14] = compound at 25 μM, average of 3 replicates
[15] = inhibitors at 25 μM, relative to 0 μM inhibitor control, mean ± s.d., 3 independent experiments
[16] = read-out: EN activity, percent of no inhibitor control
[17] = [Inhibitor] 5 μM, technical replicates 1-3, Fig. 2b source data, 5 µM
[18] = [Inhibitor] 2500 μM, technical replicates 1-3, Fig. 2b source data, 2500 µM

Chain of L1 EN (LINE-1 retrotransposon endonuclease domain) (O00370 1-239 N5T): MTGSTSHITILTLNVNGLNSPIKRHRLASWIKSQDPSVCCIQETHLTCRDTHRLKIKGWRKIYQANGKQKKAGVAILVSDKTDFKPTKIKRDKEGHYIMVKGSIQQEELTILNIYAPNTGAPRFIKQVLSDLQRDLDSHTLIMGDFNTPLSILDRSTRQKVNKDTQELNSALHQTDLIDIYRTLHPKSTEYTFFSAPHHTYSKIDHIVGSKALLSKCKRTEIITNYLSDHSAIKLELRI

C[C@H]1C[C@H](C)CN(CCCNc2ccc(C(=O)Nc3ccc(C(F)(F)F)cc3)cc2[N+](=O)[O-])C1 [AD9]
EN activity, percent of no inhibitor control ([1]; [Inhibitor] 2 μM, technical replicates 1-3, Fig. 2b source data, 2 µM): 91.056% and 80.4005%
remaining activity at 2 µM ([1]; [Inhibitor] 2 μM, technical replicates 1-3, Fig. 2b source data, read-out: EN activity, percent of no inhibitor control): 100%
EN activity, percent of no inhibitor control ([1]; [Inhibitor] 10 μM, technical replicates 1-3, Fig. 2b source data, 10 µM): 101.14% (2×) and 73.8761%
EN activity, percent of no inhibitor control [1, 3]: 96.0191%
remaining activity at 25 µM [1, 4]: 109%
EN activity, percent of no inhibitor control [1, 5]: 139.387% and 77.4751% and 117.995%
EN activity, percent of no inhibitor control [1, 6]: 89.4903%
remaining activity at 100 µM [1, 7]: 85.7%
EN activity, percent of no inhibitor control [1, 8]: 70.6219%
remaining activity at 250 µM [1, 9]: 83.4%
EN activity, percent of no inhibitor control [1, 10]: 47.0918%
remaining activity at 500 µM [1, 11]: 45.2%
EN activity, percent of no inhibitor control [1, 12]: 38.5425%
remaining activity at 1000 µM [1, 13]: 31.3%
EN activity, percent of no inhibitor control ([1]; [Inhibitor] 2000 μM, technical replicates 1-3, Fig. 2b source data, 2000 µM): 14.4137%
remaining activity at 2000 µM ([1]; [Inhibitor] 2000 μM, technical replicates 1-3, Fig. 2b source data, read-out: EN activity, percent of no inhibitor control): 28.7%
Percent APE1 activity, average (APE1): 100.1%
Percent APE1 activity, replicates (APE1): 118.893% and 92.7882% and 88.5535%
APE1 percent activity, Replicate 1 (APE1; compound at 25 μM, Replicate 1): 119.501%
APE1 percent activity, Replicate 2 (APE1; compound at 25 μM, Replicate 2): 114.522%
APE1 percent activity, Replicate 3 (APE1; compound at 25 μM, Replicate 3): 113.798%
APE1 percent activity, average (APE1; [14]): 115.94%
activity at 25 µM (APE1; [15]): 116 ± 3.1%
Binding Detected? (Y/N) [2]: N
L1 retrotransposition, average (L1 retrotransposition; 0.2 μM inhibitor, Figure 4b concentration-dependent inhibition): 1.898
L1 retrotransposition, average (L1 retrotransposition; 0.5 μM inhibitor, Figure 4b): 2.458
L1 retrotransposition, average (L1 retrotransposition; 1 μM inhibitor, Figure 4b): 2.133
L1 retrotransposition, average (L1 retrotransposition; 5 μM inhibitor, Figure 4b): 1.566
L1 retrotransposition, average (L1 retrotransposition; 10 μM inhibitor, Figure 4b): 0.7154
L1 retrotransposition, average (L1 retrotransposition; 20 μM inhibitor, Figure 4b): 1.222
L1 retrotransposition, average (L1 retrotransposition; 35 μM inhibitor, Figure 4b): 0.4788
Luciferase (retrotransposition), average (L1 retrotransposition; Figure 4a Graph 2, 50 μM, 0 μM average 9.679): 2.116
Luciferase (retrotransposition), replicates (L1 retrotransposition; Figure 4a Graph 2, 50 μM, Replicates 1-4, 0 μM average 9.679): 3.949 and 1.344 and 2.584 and 0.5874
Effect on L1 retrotransposition (L1 retrotransposition): some activity in the retrotransposition assay
PrestoBlue (viability), average (HeLa Tet-On cells; 48 h, 50 μM): 17.51

O=C1c2ccc(Oc3ccc4c(c3)C(=O)N(Nc3ccc([N+](=O)[O-])cc3[N+](=O)[O-])C4=O)cc2C(=O)N1Nc1ccc([N+](=O)[O-])cc1[N+](=O)[O-] [AD13]
EN activity, percent of no inhibitor control ([1]; 0.5 µM): 119.788% and 111.52%
EN activity, percent of no inhibitor control ([1]; 10 µM): 92.6481% and 80.1764%
EN activity, percent of no inhibitor control ([1]; 25 µM): 33.9668% and 41.2844%
EN activity, percent of no inhibitor control ([1]; 50 µM): 7.541% and 8.862% and 3.766%
EN activity, percent of no inhibitor control ([1]; 100 µM): 1.558% and 1.832%
EN activity, percent of no inhibitor control ([1]; 250 µM): 1.124% and 2.509% and 2.58%
EN activity, percent of no inhibitor control ([1]; 500 µM): 0.9149% and 2.171% and 1.168%
EN activity, percent of no inhibitor control ([1]; 1000 µM): 5.545% and 2.613% and 9.084%
remaining activity at 0.5 µM [1, 16]: 114%
remaining activity at 10 µM [1, 16]: 97.9%
remaining activity at 25 µM [1, 16]: 25.1%
remaining activity at 100 µM [1, 16]: 0.968%
remaining activity at […] [1, 16]: 89.7%
APE1 percent activity, Replicate 1 (APE1): 97.407%
APE1 percent activity, Replicate 2 (APE1): 88.0071%
APE1 percent activity, Replicate 3 (APE1): 67.6438%
APE1 percent activity, average (APE1): 84.3526%
activity at 25 µM (APE1): 84.4 ± 15.2%
Binding Detected? (Y/N) [2]: N
Luciferase (retrotransposition), average (L1 retrotransposition): 4.925
Luciferase (retrotransposition), replicates (L1 retrotransposition): 6.1144 and 4.934 and 4.878 and 3.774
PrestoBlue (viability), average (HeLa Tet-On cells): 12.09

COc1ccc(OC)c(NS(=O)(=O)c2ccc(NS(=O)(=O)c3cccc([N+](=O)[O-])c3)cc2)c1 [AD36]
EN activity, percent of no inhibitor control [1, 17]: 91.0252% and 84.1869%
remaining activity at 5 µM ([1]; [Inhibitor] 5 μM, technical replicates 1-3, Fig. 2b source data, read-out: EN activity, percent of no inhibitor control): 89.6%
EN activity, percent of no inhibitor control [1, 3]: 101.21% and 100.403%
remaining activity at 25 µM [1, 4]: 82%
EN activity, percent of no inhibitor control [1, 6]: 79.4211% and 84.6024%
remaining activity at 100 µM [1, 7]: 96.7%
EN activity, percent of no inhibitor control [1, 8]: 66.0801% and 55.4717%
remaining activity at 250 µM [1, 9]: 47.9%
EN activity, percent of no inhibitor control [1, 10]: 50.9528% and 49.6683%
remaining activity at 500 µM [1, 11]: 60.1%
EN activity, percent of no inhibitor control ([1]; [Inhibitor] 750 μM, technical replicates 1-3, Fig. 2b source data, 750 µM): 44.0742% and 35.8636%
remaining activity at 750 µM ([1]; [Inhibitor] 750 μM, technical replicates 1-3, Fig. 2b source data, read-out: EN activity, percent of no inhibitor control): 31.6%
EN activity, percent of no inhibitor control [1, 12]: 29.1344% and 22.6241%
remaining activity at 1000 µM [1, 13]: 19.6%
EN activity, percent of no inhibitor control ([1]; [Inhibitor] 1750 μM, technical replicates 1-3, Fig. 2b source data, 1750 µM): 17.5242% and 11.215% and 25.1816%
EN activity, percent of no inhibitor control [1, 18]: 18.2597% and 42.0507% and 24.6475%
Percent APE1 activity, average (APE1): 108.9%
Percent APE1 activity, replicates (APE1): 115.202% and 104.299% and 107.269%
APE1 percent activity, Replicate 1 (APE1; compound at 25 μM, Replicate 1): 121.786%
APE1 percent activity, Replicate 2 (APE1; compound at 25 μM, Replicate 2): 104.892%
APE1 percent activity, Replicate 3 (APE1; compound at 25 μM, Replicate 3): 127.866%
APE1 percent activity, average (APE1; [14]): 118.181%
activity at 25 µM (APE1; [15]): 118 ± 11.9%
Binding Detected? (Y/N) [2]: N
L1 retrotransposition, average (L1 retrotransposition; 0.5 μM inhibitor, Figure 4b): 4.647
L1 retrotransposition, average (L1 retrotransposition; 1 μM inhibitor, Figure 4b): 4.699
L1 retrotransposition, average (L1 retrotransposition; 5 μM inhibitor, Figure 4b): 4.066
L1 retrotransposition, average (L1 retrotransposition; 10 μM inhibitor, Figure 4b): 4.169
L1 retrotransposition, average (L1 retrotransposition; 25 μM inhibitor, Figure 4b): 2.81
L1 retrotransposition, average (L1 retrotransposition; 50 μM inhibitor, Figure 4b): 1.253
Luciferase (retrotransposition), average (L1 retrotransposition; Figure 4a Graph 4, 25μM, 0μM average 3.426): 1.266
Luciferase (retrotransposition), replicates (L1 retrotransposition; Figure 4a Graph 4, 25μM, Replicates 1-4, 0μM average 3.426): 1.765 and 0.7621 and 1.278 and 1.259
Effect on L1 retrotransposition (L1 retrotransposition): some activity in the retrotransposition assay
PrestoBlue (viability), average (HeLa Tet-On cells; 48 h, 25 μM): 15.2

O=C(Cn1nc(-c2ccc(Br)cc2)ccc1=O)NC[C@H]1CC[C@H](C(=O)O)CC1 [AD43]
EN activity, percent of no inhibitor control [1, 17]: 82.7533% and 93.1928% and 121.814%
EN activity, percent of no inhibitor control [1, 3]: 125.36% and 146.969% and 130.066%
EN activity, percent of no inhibitor control [1, 5]: 105.857% and 111.128%
remaining activity at 50 µM ([1]; [Inhibitor] 50 μM, technical replicates 1-3, Fig. 2b source data, read-out: EN activity, percent of no inhibitor control): 117%
EN activity, percent of no inhibitor control [1, 6]: 119.496% and 103.054%
remaining activity at 100 µM [1, 7]: 106%
EN activity, percent of no inhibitor control [1, 8]: 70.4269% and 99.2352% and 82.7621%
EN activity, percent of no inhibitor control [1, 10]: 75.3754% and 92.6354%
remaining activity at 500 µM [1, 11]: 82.7%
EN activity, percent of no inhibitor control [1, 12]: 36.4624% and 21.4688%
remaining activity at 1000 µM [1, 13]: 31.2%
EN activity, percent of no inhibitor control [1, 18]: -1.238% and -2.463% and -2.08%
Percent APE1 activity, average (APE1): 116.3%
Percent APE1 activity, replicates (APE1): 119.605% and 105.469% and 123.903%
APE1 percent activity, Replicate 1 (APE1; compound at 25 μM, Replicate 1): 116.306%
APE1 percent activity, Replicate 2 (APE1; compound at 25 μM, Replicate 2): 108.363%
APE1 percent activity, Replicate 3 (APE1; compound at 25 μM, Replicate 3): 123.152%
APE1 percent activity, average (APE1; [14]): 115.94%
activity at 25 µM (APE1; [15]): 116 ± 7.4%
Binding Detected? (Y/N) [2]: N
Luciferase (retrotransposition), average (L1 retrotransposition; Figure 4a Graph 5, 50μM, 0μM average 4.537): 2.141
Luciferase (retrotransposition), replicates (L1 retrotransposition; Figure 4a Graph 5, 50μM, Replicates 1-4, 0μM average 4.537): 2.066 and 2.337 and 2.1059 and 2.055
Effect on L1 retrotransposition (L1 retrotransposition): some activity in the retrotransposition assay
PrestoBlue (viability), average (HeLa Tet-On cells; 48 h, 50 μM): 6.621
